Bridge positions count the residues as written; N and C are the ends. Peptide text beside a SMILES is read from it.
Target: human IgG
Test: Surface plasmon resonance (SPR) analysis of synthetic peptide binding to human IgG
Settings: for Kd: SPR, synthetic peptide binding to human IgG, read-out: Kd; for affinity compared with the original peptide, in words: compared with GFc-C35-3/15
Experimental: In order to narrow down the amino acid region to be studied, a peptide in which one amino acid was deleted from each end of GFc-C35 (GFc-C35-2/16) and a peptide in which two amino acids were deleted from each end of CFc-C35 (GFc-C35-3/15) were synthesized. Among these peptides, based on the GFc-C35-3/15 synthetic peptide, the effect of the introduction of amino acid mutations on affinity was evaluated. That is, the contribution of each amino acid substitution to affinity was evaluated by synthesizing peptides substituted with frequently or occasionally observed amino acids obtained from the phage libraries and subjecting the resulting synthetic peptides to binding analysis.
Based on the synthetic peptide C35A, peptides substituted with amino acids observed at high frequency in the aforementioned phage libraries were synthesized by introducing amino acid mutations, and in a similar manner to the above, their binding to human IgG was analyzed by surface plasmon resonance (SPR) analysis to evaluate the contribution of each amino acid substitution to affinity.

Kd [µM] | affinity compared with the original peptide, in words | affinity compared with the parent peptide, in words (compared with GFc-C35-3/15 (T7H, N8R)) | SMILES
0.042 |  |  | CC(C)C[C@@H]1NC(=O)[C@H](CCC(=O)O)NC(=O)CNC(=O)[C@H](CCCNC(=N)N)NC(=O)[C@H](Cc2c[nH]cn2)NC(=O)[C@H](Cc2ccc(O)cc2)NC(=O)[C@H](C)NC(=O)[C@@H](NC(=O)[C@H](CCCNC(=N)N)NC(=O)[C@@H]2CCCN2C(=O)CN)CSSC[C@@H](C(=O)N[C@@H](CO)C(=O)N[C@@H](Cc2ccccc2)C(=O)N[C@@H](Cc2c[nH]cn2)C(N)=O)NC(=O)[C@H](Cc2c[nH]c3ccccc23)NC(=O)[C@H](C(C)C)NC1=O [C35A (D3R, T15S), GPRCAYHRGELVWCSFH] (H-GPRCAYHRGELVWCSFH-NH2; disulfide 4-14)
14 |  |  | CC(C)C[C@@H]1NC(=O)[C@H](CC(N)=O)NC(=O)CNC(=O)[C@H](CC(N)=O)NC(=O)[C@H]([C@@H](C)O)NC(=O)[C@H](Cc2ccc(O)cc2)NC(=O)[C@H]([C@@H](C)O)NC(=O)[C@@H](NC(=O)[C@H](CC(=O)O)NC(=O)[C@@H]2CCCN2C(=O)CN)CSSC[C@@H](C(=O)N[C@H](C(=O)N[C@@H](Cc2ccccc2)C(=O)N[C@@H](Cc2c[nH]cn2)C(N)=O)[C@@H](C)O)NC(=O)[C@H](Cc2c[nH]c3ccccc23)NC(=O)[C@H](C(C)C)NC1=O [GFc-C35, GPDCTYTNGNLVWCTFH] (H-GPDCTYTNGNLVWCTFH-NH2; disulfide 4-14)
61 | highest affinity |  | CC(C)C[C@@H]1NC(=O)[C@H](CC(N)=O)NC(=O)CNC(=O)[C@H](CC(N)=O)NC(=O)[C@H]([C@@H](C)O)NC(=O)[C@H](Cc2ccc(O)cc2)NC(=O)[C@H](C)NC(=O)[C@@H](NC(=O)[C@@H](N)CC(=O)O)CSSC[C@@H](C(=O)N[C@H](C(N)=O)[C@@H](C)O)NC(=O)[C@H](Cc2c[nH]c3ccccc23)NC(=O)[C@H](C(C)C)NC1=O [GFc-C35-3/15 (T5A), DCAYTNGNLVWCT] (H-DCAYTNGNLVWCT-NH2; disulfide 2-12)
0.0133 |  |  | CC(C)C[C@@H]1NC(=O)[C@H](CCC(=O)O)NC(=O)CNC(=O)[C@H](CCCNC(=N)N)NC(=O)[C@H](Cc2c[nH]cn2)NC(=O)[C@H](Cc2ccc(O)cc2)NC(=O)[C@H](C)NC(=O)[C@@H](NC(=O)[C@H](CC(=O)O)NC(=O)[C@H](CC(=O)O)NC(=O)CN)CSSC[C@@H](C(=O)N[C@H](C(=O)N[C@@H](Cc2ccccc2)C(=O)N[C@@H](Cc2c[nH]cn2)C(N)=O)[C@@H](C)O)NC(=O)[C@H](Cc2c[nH]c3ccccc23)NC(=O)[C@H](C(C)C)NC1=O [C35A (P2D), GDDCAYHRGELVWCTFH] (H-GDDCAYHRGELVWCTFH-NH2; disulfide 4-14)
1.1 |  |  | CC(C)C[C@@H]1NC(=O)[C@H](CC(N)=O)NC(=O)CNC(=O)[C@H](CCCNC(=N)N)NC(=O)[C@H](Cc2c[nH]cn2)NC(=O)[C@H](Cc2ccc(O)cc2)NC(=O)[C@H]([C@@H](C)O)NC(=O)[C@@H](NC(=O)[C@@H](N)CC(=O)O)CSSC[C@@H](C(=O)N[C@H](C(N)=O)[C@@H](C)O)NC(=O)[C@H](Cc2c[nH]c3ccccc23)NC(=O)[C@H](C(C)C)NC1=O [GFc-C35-3/15 (T7H, N8R), DCTYHRGNLVWCT] (H-DCTYHRGNLVWCT-NH2; disulfide 2-12)
4.8 |  | reduced affinity | CC[C@H](C)[C@@H]1NC(=O)[C@H](CC(C)C)NC(=O)[C@H](CC(N)=O)NC(=O)CNC(=O)[C@H](CCCNC(=N)N)NC(=O)[C@H](Cc2c[nH]cn2)NC(=O)[C@H](Cc2ccc(O)cc2)NC(=O)[C@H]([C@@H](C)O)NC(=O)[C@@H](NC(=O)[C@@H](N)CC(=O)O)CSSC[C@@H](C(=O)N[C@H](C(N)=O)[C@@H](C)O)NC(=O)[C@H](Cc2c[nH]c3ccccc23)NC1=O [GFc-C35-3/15 (T7H, N8R, V12I), DCTYHRGNLIWCT] (H-DCTYHRGNLIWCT-NH2; disulfide 2-12)
50 | increased affinity |  | CC(C)C[C@@H]1NC(=O)[C@H](CC(N)=O)NC(=O)CNC(=O)[C@H](CC(N)=O)NC(=O)[C@H]([C@@H](C)O)NC(=O)[C@H](Cc2c[nH]c3ccccc23)NC(=O)[C@H]([C@@H](C)O)NC(=O)[C@@H](NC(=O)[C@@H](N)CC(=O)O)CSSC[C@@H](C(=O)N[C@H](C(N)=O)[C@@H](C)O)NC(=O)[C@H](Cc2c[nH]c3ccccc23)NC(=O)[C@H](C(C)C)NC1=O [GFc-C35-3/15 (Y6W), DCTWTNGNLVWCT] (H-DCTWTNGNLVWCT-NH2; disulfide 2-12)

Reference: US9365619B2, “IgG-binding peptide and method for detecting and purifying IgG using same” (Otsuka Chemical Co., Ltd., priority 2011, dated 2016)
